biological target: T1, DPP-IV (Homo sapiens, UniProt P27487); experiment: Inhibition of DPP-IV peptidase activity, continuous fluorimetric assay (Gly-Pro-AMC cleavage); type: biochemical; details: 16 μM Gly-Pro-AMC, pH 7.4, 25° C., 1% DMSO
T1 construct: Soluble human DPP-IV lacking the transmembrane anchor (Gly31-Pro766); Pre-Pro-alpha-mating factor leader (secretion signal) (N, cleaved yes); made in house
Procedure: Inhibition of DPP-IV peptidase activity was monitored with a continuous fluorimetric assay. This assay is based on the cleavage of the substrate Gly-Pro-AMC (Bachem) by DPP-IV, releasing free AMC. The assay is carried out in 96-well microtiterplates. In a total volume of 100 μL, compounds are preincubated with […] employing a buffer containing 10 mM Hepes, 150 mM NaCl, 0.005% Tween 20 (pH 7.4). […] The final concentration of DMSO is 1%. The inhibitory potential of the compounds were determined.
Soluble human DPP-IV lacking the transmembrane anchor (Gly31-Pro766) was expressed in a recombinant YEAST-strain as Pre-Pro-alpha-mating fusion.

T1 sequence (P27487 31-766): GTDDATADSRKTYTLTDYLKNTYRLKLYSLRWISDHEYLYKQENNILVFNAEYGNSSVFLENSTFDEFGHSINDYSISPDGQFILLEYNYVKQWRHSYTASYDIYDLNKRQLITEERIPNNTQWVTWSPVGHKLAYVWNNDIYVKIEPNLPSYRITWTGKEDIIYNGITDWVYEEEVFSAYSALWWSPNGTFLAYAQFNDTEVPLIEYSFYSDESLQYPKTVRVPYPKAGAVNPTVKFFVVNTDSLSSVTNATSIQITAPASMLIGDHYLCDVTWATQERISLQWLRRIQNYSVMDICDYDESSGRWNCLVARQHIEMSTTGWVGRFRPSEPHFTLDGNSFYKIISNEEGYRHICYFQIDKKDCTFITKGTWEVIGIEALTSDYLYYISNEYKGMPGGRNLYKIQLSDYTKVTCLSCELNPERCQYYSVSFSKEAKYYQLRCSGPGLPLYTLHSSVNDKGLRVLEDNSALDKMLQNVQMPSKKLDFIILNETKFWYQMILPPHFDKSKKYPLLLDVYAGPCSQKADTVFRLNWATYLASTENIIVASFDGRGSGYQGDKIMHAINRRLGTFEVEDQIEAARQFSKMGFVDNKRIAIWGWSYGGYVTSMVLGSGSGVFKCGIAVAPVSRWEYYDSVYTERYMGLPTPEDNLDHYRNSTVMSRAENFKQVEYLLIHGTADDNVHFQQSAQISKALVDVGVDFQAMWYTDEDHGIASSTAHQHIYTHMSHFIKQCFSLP

SMILES	IC50 [nM]
N[C@@H](CC(=O)N1CCCC(CNC(=O)c2ccccc2)C1)Cc1ccccc1F (mixture of isomers) [Example 94, N-{1-[(3R)-Amino-4-(2-fluoro-phenyl)-butyryl]-piperidin-3-ylmethyl}-benzamide]	101 to 1000
N[C@@H](CC(=O)N1CCCC(CO)C1)Cc1ccccc1F (mixture of isomers) [Example 105, 3-Amino-4-(2-fluoro-phenyl)-1-(3-hydroxymethyl-piperidin-1-yl)-butan-1-one]	1000 to 2000
N[C@@H](CC(=O)N1CCC[C@H]1COCc1ccccc1)Cc1ccccc1F [Example 32, (3R)-Amino-1-[(2S)-benzyloxymethyl-pyrrolidin-1-yl]-4-(2-fluoro-phenyl)-butan-1-one]	101 to 1000
N#Cc1ccc(OC[C@@H]2CCCN2C(=O)C[C@H](N)Cc2ccccc2F)cc1 [Example 34]	< 100
N#Cc1cccc(OC[C@@H]2CCCN2C(=O)C[C@H](N)Cc2ccccc2F)c1 [Example 36]	< 100
N[C@@H](CC(=O)N1CCC[C@H]1COc1ccc(F)cc1)Cc1ccccc1F [Example 38]	< 100
N[C@@H](CC(=O)N1CCC[C@H]1COc1ccccn1)Cc1ccccc1F [Example 39]	< 100
N[C@@H](CC(=O)N1CCC[C@H]1COc1cccc(F)c1)Cc1cccc(Cl)c1 [Example 41]	< 100
N[C@@H](CC(=O)N1CCC[C@H]1CNC(=O)c1ccccc1)Cc1cccc(F)c1 [Example 46]	< 100
N#Cc1cccc(C[C@@H](N)CC(=O)N2CCC[C@H]2CNC(=O)c2ccccc2)c1 [Example 47]	101 to 1000
N[C@@H](CC(=O)N1CCC[C@H]1CNC(=O)c1ccccc1)Cc1ccccc1Cl [Example 48]	< 100
N[C@@H](CC(=O)N1CCC[C@H]1CNC(=O)c1ccccc1F)Cc1ccccc1F [Example 55]	< 100
N[C@@H](CC(=O)N1CCC[C@H]1CNC(=O)c1cccc(F)c1)Cc1ccccc1F [Example 56]	< 100
N[C@@H](CC(=O)N1CCC[C@H]1CNC(=O)c1ccc(F)cc1)Cc1ccccc1F [Example 57]	< 100
N[C@@H](CC(=O)N1CCC[C@H]1CNC(=O)c1ccncc1)Cc1ccccc1F [Example 60]	< 100
N[C@@H](CC(=O)N1CCC[C@H]1CNc1ccccc1)Cc1ccccc1F [Example 66, (3R)-Amino-4-(2-fluoro-phenyl)-1-[(2S)-phenylaminomethyl-pyrrolidin-1-yl]-butan-1-one]	< 100
N#Cc1ccc(NC[C@@H]2CCCN2C(=O)C[C@H](N)Cc2ccccc2F)nc1 [Example 68, 6-({1-[3-Amino-4-(2-fluoro-phenyl)-butyryl]-pyrrolidin-2-ylmethyl}-amino)-nicotinonitrile]	< 100
N[C@@H](CC(=O)N1CCC[C@H]1CNc1cnccn1)Cc1ccccc1F [Example 69]	101 to 1000
COc1ccc(S(=O)(=O)NC[C@@H]2CCCN2C(=O)C[C@H](N)Cc2ccccc2F)cc1OC [Example 78, N-{1-[3-Amino-4-(2-fluoro-phenyl)-butyryl]-pyrrolidin-2-ylmethyl}-3,4-dimethoxy-benzenesulfonamide]	< 100
N[C@@H](CC(=O)N1CCC[C@H]1CNS(=O)(=O)c1ccc(Cl)cc1)Cc1ccccc1F [Example 81]	< 100
N[C@@H](CC(=O)N1CCC[C@H]1CNS(=O)(=O)c1cc(Cl)ccc1Cl)Cc1ccccc1F [Example 82]	< 100
N[C@@H](CC(=O)N1CCC[C@H]1CNS(=O)(=O)c1ccccc1F)Cc1ccccc1F [Example 83]	< 100
N[C@@H](CC(=O)N1CCCC[C@H]1CNC(=O)c1ccccc1)Cc1ccccc1F [Example 87, N-{1-[(3R)-Amino-4-(2-fluoro-phenyl)-butyryl]-piperidin-(2S)-ylmethyl}-benzamide]	101 to 1000
N[C@@H](CC(=O)N1CCCC[C@H]1CNS(=O)(=O)c1ccccc1)Cc1ccccc1F [Example 88, N-{1-[(3R)-Amino-4-(2-fluoro-phenyl)-butyryl]-piperidin-(2S)-ylmethyl}-benzenesulfonamide]	101 to 1000
N[C@@H](CC(=O)N1CCCC(CNS(=O)(=O)c2ccccc2)C1)Cc1ccccc1F (stereo partly shown) [Example 89, N-{1-[3-Amino-4-(2-fluoro-phenyl)-butyryl]-piperidin-3-ylmethyl}-benzenesulfonamide]	101 to 1000
N[C@@H](CC(=O)N1CC(CNC(=O)c2ccccc2)C1)Cc1ccccc1F [Example 90, N-{1-[(3R)-Amino-4-(2-fluoro-phenyl)-butyryl]-azetidin-3-ylmethyl}-benzamide]	101 to 1000
N[C@@H](CC(=O)N1CC(COc2ccccc2)C1)Cc1ccccc1F [Example 92, 3-Amino-4-(2-fluoro-phenyl)-1-(3-phenoxymethyl-azetidin-1-yl)-butan-1-one]	1000 to 2000
N[C@@H](CC(=O)N1CC(COc2ccccn2)C1)Cc1ccccc1F [Example 93]	1000 to 2000
N[C@@H](CC(=O)N1CCC[C@H]1CNc1nc(-c2ccccn2)no1)Cc1ccccc1F [Example 101, (3R)-Amino-4-(2-fluorophenyl)-1-{(2 S)-[(3-pyridin-2-yl-[1,2,4]oxadiazol-5-ylamino)-methyl]-pyrrolidin-1-yl}-butan-1-one]	< 100
CS(=O)(=O)c1ccc(-c2noc(NC[C@@H]3CCCN3C(=O)C[C@H](N)Cc3ccccc3F)n2)cc1 [Example 104, (3R)-Amino-4-(2-fluorophenyl)-1-((2S)-{[3-(4-methanesulphonylphenyl)-[1,2,4]oxadiazol-5-ylamino]-methyl}-pyrrolidin-1-yl)-butan-1-one]	< 100

Second part, the compound after the results:

IC50 [nM]	SMILES
101 to 1000	COC[C@@H]1CCCN1C(=O)C[C@H](N)Cc1ccccc1F [Example 33]
< 100	N[C@@H](CC(=O)N1CCC[C@H]1COc1ccccc1)Cc1ccccc1F [Example 35]
< 100	N#Cc1ccccc1OC[C@@H]1CCCN1C(=O)C[C@H](N)Cc1ccccc1F [Example 37]
< 100	N[C@@H](CC(=O)N1CCC[C@H]1COc1cccc(F)c1)Cc1ccccc1F [Example 40]
101 to 1000	N[C@@H](CC(=O)N1CCC[C@H]1CNC(=O)c1ccccc1)Cc1ccc(F)cc1 [Example 44]
< 100	N[C@@H](CC(=O)N1CCC[C@H]1CNC(=O)c1ccccc1)Cc1cccc(Cl)c1 [Example 45]
101 to 1000	N[C@@H](CC(=O)N1CCC[C@H]1CNC(=O)c1ccccc1)Cc1ccccc1 [Example 49]
< 100	N[C@@H](CC(=O)N1CCC[C@H]1CNC(=O)c1ccccc1)Cc1ccc(F)c(F)c1 [Example 50]
< 100	COc1cccc(C(=O)NC[C@@H]2CCCN2C(=O)C[C@H](N)Cc2ccccc2F)c1 [Example 54, N-{1-[3-Amino-4-(2-fluoro-phenyl)-butyryl]-pyrrolidin-2-ylmethyl}-3-methoxy-benzamide]
< 100	N[C@@H](CC(=O)N1CCC[C@H]1CNC(=O)c1cccnc1)Cc1ccccc1F [Example 59]
< 100	CS(=O)(=O)c1ccc(C(=O)NC[C@@H]2CCCN2C(=O)C[C@H](N)Cc2ccccc2F)cc1 [Example 61]
< 100	CS(=O)(=O)c1ccccc1C(=O)NC[C@@H]1CCCN1C(=O)C[C@H](N)Cc1ccccc1F [Example 62]
101 to 1000	N[C@@H](CC(=O)N1CCC[C@H]1CN1CCCC1)Cc1cccc(Cl)c1 [Example 67]
< 100	N[C@@H](CC(=O)N1CCC[C@H]1CNS(=O)(=O)c1cccc(F)c1)Cc1ccccc1F [Example 79]
< 100	COc1ccc(S(=O)(=O)NC[C@@H]2CCCN2C(=O)C[C@H](N)Cc2ccccc2F)cc1 [Example 80]
< 100	N[C@@H](CC(=O)N1CCC[C@H]1CNS(=O)(=O)c1ccc(F)cc1)Cc1ccccc1F [Example 84]
< 100	CS(=O)(=O)NC[C@@H]1CCCN1C(=O)C[C@H](N)Cc1ccccc1F [Example 85]
< 100	N[C@@H](CC(=O)N1CCC[C@H]1CNC(=O)Nc1ccccc1)Cc1ccccc1F [Example 86, 1-{1-[(3R)-Amino-4-(2-fluoro-phenyl)-butyryl]-pyrrolidin-(2S)-ylmethyl}-3-phenyl-urea]
101 to 1000	N[C@@H](CC(=O)N1CC(CNS(=O)(=O)c2ccccc2)C1)Cc1ccccc1F [Example 91, N-{1-[3-Amino-4-(2-fluoro-phenyl)-butyryl]-azetidin-3-ylmethyl}-benzenesulfonamide]
101 to 1000	N[C@@H](CC(=O)N1CCC[C@H]1CNc1nc(-c2ccccc2)no1)Cc1ccccc1F [Example 100, (3R)-Amino-4-(2-fluorophenyl)-1-{(2S)-[(3-phenyl-[1,2,4]oxadiazol-5-ylamino)-methyl]-pyrrolidin-1-yl}butan-1-one]
< 100	N[C@@H](CC(=O)N1CCC[C@H]1CNc1nc(-c2cccc(Cl)c2)no1)Cc1ccccc1F [Example 102]
1000 to 2000	N[C@@H](CC(=O)N1CCC[C@H]1CNc1nc(-c2cccc(F)c2)no1)Cc1ccccc1F [Example 103, (3R)-Amino-4-(2-fluorophenyl)-1-((2S)-{[3-(3-fluorophenyl)-[1,2,4]oxadiazol-5-ylamino]-methyl}-pyrrolidin-1-yl)-butan-1-one]

Reference: patent US20080027035A1, “Dpp-Iv Inhibitors” (GRAFFINITY PHARMACEUTICALS AG, priority 2003, published 2008)
